Key:
Assay in all cases: relative viability (nuclei count vs DMSO), 5 days (fraction); higher = more cells survive
AT-7519 + Pemetrexed = compound: O=C(NC1CCNCC1)c1n[nH]cc1NC(=O)c1c(Cl)cccc1Cl [AT-7519] + Nc1nc2[nH]cc(CCc3ccc(C(=O)N[C@@H](CCC(=O)O)C(=O)O)cc3)c2c(=O)[nH]1 [Pemetrexed] (partner 0.2 µM)
Procedure, shortened: (§1)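 Cells from lung cancer lines were seeded into 1536-well plates and, one day later, dosed by pin tool. Treatments were either a single drug or a fixed dose of an anchor drug with five library-drug doses (not always all listed) in √10 steps. After 5 days, nuclei were stained in a one-step fixation (final 0.05% Triton X-100, 1% formaldehyde, 1 ug/ml Hoechst) and counted on 4× images, and relative viability is the treated-to-vehicle nuclei ratio, as the median of duplicate plates.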

[1] = compound: C1=CC2=C(C=C(C(=C2N=C1)O)N=NC3=CC4=C(C=C3)C=C(C=C4)S(=O)(=O)O)S(=O)(=O)O + Cc1nc(NC(=O)N2CCC[C@H]2C(N)=O)sc1-c1ccnc(C(C)(C)C(F)(F)F)c1 [Alpelisib] (partner 2 µM)
Procedure, shortened: as §1

AT-7519 = compound: O=C(NC1CCNCC1)c1n[nH]cc1NC(=O)c1c(Cl)cccc1Cl [AT-7519]
Procedure, shortened: (§2)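 Lung cancer cell lines in 1536-well plates were kept overnight at 37 °C, then pinned with five library-drug doses (not always all listed) spaced by √10 on vehicle-anchored plates. After 5 days without medium change, cells were fixed, permeabilised and Hoechst-stained in one step, imaged at 4×, and nuclei were counted with MetaXpress. Viability is treated-well nuclei divided by vehicle-well nuclei, taken as the median over plates. Plates passed only with control CV below 25% and at least one doubling.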

[2] = compound: C1=CC2=C(C=C(C(=C2N=C1)O)N=NC3=CC4=C(C=C3)C=C(C=C4)S(=O)(=O)O)S(=O)(=O)O
Procedure, shortened: as §2

NCI-H2405
relative viability (AT-7519 + Pemetrexed; first compound 0.01 µM): 1.02
relative viability (AT-7519 + Pemetrexed; first compound 0.03162 µM): 0.996
relative viability (AT-7519 + Pemetrexed; first compound 0.3162 µM): 1.08
relative viability (AT-7519 + Pemetrexed; first compound 1 µM): 0.729
relative viability ([1]; first compound 0.08 µM): 0.805
relative viability ([1]; first compound 0.253 µM): 0.758
relative viability ([1]; first compound 0.8 µM): 0.838
relative viability ([1]; first compound 2.53 µM): 0.886
relative viability ([1]; first compound 8 µM): 0.722
relative viability (AT-7519; 0.01 µM): 0.987
relative viability (AT-7519; 0.03162 µM): 0.973
relative viability (AT-7519; 0.3162 µM): 1.01
relative viability (AT-7519; 1 µM): 0.812
relative viability ([2]; 0.08 µM): 0.972
relative viability ([2]; 0.253 µM): 0.919
relative viability ([2]; 0.8 µM): 0.984
relative viability ([2]; 2.53 µM): 1.02
relative viability ([2]; 8 µM): 0.877

NCI-H3122
relative viability (AT-7519 + Pemetrexed; first compound 0.01 µM): 0.215
relative viability (AT-7519 + Pemetrexed; first compound 0.03162 µM): 0.209
relative viability (AT-7519 + Pemetrexed; first compound 0.3162 µM): 0.173
relative viability (AT-7519 + Pemetrexed; first compound 1 µM): 0.176
relative viability ([1]; first compound 0.08 µM): 0.891
relative viability ([1]; first compound 0.253 µM): 0.795
relative viability ([1]; first compound 0.8 µM): 0.719
relative viability ([1]; first compound 2.53 µM): 0.732
relative viability ([1]; first compound 8 µM): 0.76
relative viability (AT-7519; 0.01 µM): 1.09
relative viability (AT-7519; 0.03162 µM): 1
relative viability (AT-7519; 0.3162 µM): 1.01
relative viability (AT-7519; 1 µM): 0.699
relative viability ([2]; 0.08 µM): 1.03
relative viability ([2]; 0.253 µM): 0.976
relative viability ([2]; 0.8 µM): 0.98
relative viability ([2]; 2.53 µM): 0.999
relative viability ([2]; 8 µM): 0.956

PC-3 [JPC-3]
relative viability (AT-7519 + Pemetrexed; first compound 0.01 µM): 1.05
relative viability (AT-7519 + Pemetrexed; first compound 0.03162 µM): 1.1
relative viability (AT-7519 + Pemetrexed; first compound 0.3162 µM): 1.11
relative viability (AT-7519 + Pemetrexed; first compound 1 µM): 1.47
relative viability ([1]; first compound 0.08 µM): 1.11
relative viability ([1]; first compound 0.253 µM): 1.02
relative viability ([1]; first compound 0.8 µM): 0.971
relative viability ([1]; first compound 2.53 µM): 1.04
relative viability ([1]; first compound 8 µM): 0.998
relative viability (AT-7519; 0.01 µM): 1.01
relative viability (AT-7519; 0.03162 µM): 1.02
relative viability (AT-7519; 0.3162 µM): 1.01
relative viability (AT-7519; 1 µM): 1.03
relative viability ([2]; 0.08 µM): 1.04
relative viability ([2]; 0.253 µM): 1.03
relative viability ([2]; 0.8 µM): 1.04
relative viability ([2]; 2.53 µM): 1.06
relative viability ([2]; 8 µM): 0.997

PC-14
relative viability (AT-7519 + Pemetrexed; first compound 0.01 µM): 0.138
relative viability (AT-7519 + Pemetrexed; first compound 0.03162 µM): 0.135
relative viability (AT-7519 + Pemetrexed; first compound 0.3162 µM): 0.118
relative viability (AT-7519 + Pemetrexed; first compound 1 µM): 0.103
relative viability ([1]; first compound 0.08 µM): 1.03
relative viability ([1]; first compound 0.253 µM): 0.875
relative viability ([1]; first compound 0.8 µM): 0.891
relative viability ([1]; first compound 2.53 µM): 0.994
relative viability ([1]; first compound 8 µM): 0.967
relative viability (AT-7519; 0.01 µM): 0.971
relative viability (AT-7519; 0.03162 µM): 0.94
relative viability (AT-7519; 0.3162 µM): 0.928
relative viability (AT-7519; 1 µM): 0.714
relative viability ([2]; 0.08 µM): 1.02
relative viability ([2]; 0.253 µM): 0.95
relative viability ([2]; 0.8 µM): 0.944
relative viability ([2]; 2.53 µM): 1.07
relative viability ([2]; 8 µM): 0.94

RERF-LC-KJ
relative viability (AT-7519 + Pemetrexed; first compound 0.01 µM): 0.448
relative viability (AT-7519 + Pemetrexed; first compound 0.03162 µM): 0.473
relative viability (AT-7519 + Pemetrexed; first compound 0.3162 µM): 0.414
relative viability (AT-7519 + Pemetrexed; first compound 1 µM): 0.303
relative viability ([1]; first compound 0.08 µM): 0.907
relative viability ([1]; first compound 0.253 µM): 0.842
relative viability ([1]; first compound 0.8 µM): 0.795
relative viability ([1]; first compound 2.53 µM): 0.818
relative viability ([1]; first compound 8 µM): 0.843
relative viability (AT-7519; 0.01 µM): 1.01
relative viability (AT-7519; 0.03162 µM): 0.995
relative viability (AT-7519; 0.3162 µM): 0.991
relative viability (AT-7519; 1 µM): 0.675
relative viability ([2]; 0.08 µM): 1.08
relative viability ([2]; 0.253 µM): 1.04
relative viability ([2]; 0.8 µM): 1.03
relative viability ([2]; 2.53 µM): 1.01
relative viability ([2]; 8 µM): 0.967

SK-LU-1
relative viability (AT-7519 + Pemetrexed; first compound 0.01 µM): 0.99
relative viability (AT-7519 + Pemetrexed; first compound 0.03162 µM): 1
relative viability (AT-7519 + Pemetrexed; first compound 0.3162 µM): 0.998
relative viability (AT-7519 + Pemetrexed; first compound 1 µM): 0.439
relative viability ([1]; first compound 0.08 µM): 1.06
relative viability ([1]; first compound 0.253 µM): 0.968
relative viability ([1]; first compound 0.8 µM): 0.98
relative viability ([1]; first compound 2.53 µM): 1.1
relative viability ([1]; first compound 8 µM): 1.18
relative viability (AT-7519; 0.01 µM): 1.08
relative viability (AT-7519; 0.03162 µM): 0.959
relative viability (AT-7519; 0.3162 µM): 0.924
relative viability (AT-7519; 1 µM): 0.73
relative viability ([2]; 0.08 µM): 1.17
relative viability ([2]; 0.253 µM): 1.02
relative viability ([2]; 0.8 µM): 1.02
relative viability ([2]; 2.53 µM): 0.979
relative viability ([2]; 8 µM): 0.988

SK-MES-1
relative viability (AT-7519 + Pemetrexed; first compound 0.01 µM): 1.12
relative viability (AT-7519 + Pemetrexed; first compound 0.03162 µM): 1.04
relative viability (AT-7519 + Pemetrexed; first compound 0.3162 µM): 0.982
relative viability (AT-7519 + Pemetrexed; first compound 1 µM): 0.798
relative viability ([1]; first compound 0.08 µM): 0.987
relative viability ([1]; first compound 0.253 µM): 0.845
relative viability ([1]; first compound 0.8 µM): 0.824
relative viability ([1]; first compound 2.53 µM): 0.944
relative viability ([1]; first compound 8 µM): 0.847
relative viability (AT-7519; 0.01 µM): 1.02
relative viability (AT-7519; 0.03162 µM): 0.968
relative viability (AT-7519; 0.3162 µM): 1
relative viability (AT-7519; 1 µM): 0.771
relative viability ([2]; 0.08 µM): 1.03
relative viability ([2]; 0.253 µM): 0.967
relative viability ([2]; 0.8 µM): 0.968
relative viability ([2]; 2.53 µM): 0.987
relative viability ([2]; 8 µM): 1.02

SW 1573
relative viability (AT-7519 + Pemetrexed; first compound 0.01 µM): 0.745
relative viability (AT-7519 + Pemetrexed; first compound 0.03162 µM): 0.833
relative viability (AT-7519 + Pemetrexed; first compound 0.3162 µM): 0.401
relative viability (AT-7519 + Pemetrexed; first compound 1 µM): 0.126
relative viability ([1]; first compound 0.08 µM): 0.92
relative viability ([1]; first compound 0.253 µM): 0.727
relative viability ([1]; first compound 0.8 µM): 0.775
relative viability ([1]; first compound 2.53 µM): 0.761
relative viability ([1]; first compound 8 µM): 0.797
relative viability (AT-7519; 0.01 µM): 0.988
relative viability (AT-7519; 0.03162 µM): 0.84
relative viability (AT-7519; 0.3162 µM): 0.753
relative viability (AT-7519; 1 µM): 0.312
relative viability ([2]; 0.08 µM): 1.11
relative viability ([2]; 0.253 µM): 1.03
relative viability ([2]; 0.8 µM): 0.944
relative viability ([2]; 2.53 µM): 1.01
relative viability ([2]; 8 µM): 0.815

UMC-11
relative viability (AT-7519 + Pemetrexed; first compound 0.01 µM): 0.807
relative viability (AT-7519 + Pemetrexed; first compound 0.03162 µM): 0.801
relative viability (AT-7519 + Pemetrexed; first compound 0.3162 µM): 0.586
relative viability (AT-7519 + Pemetrexed; first compound 1 µM): 0.331
relative viability ([1]; first compound 0.08 µM): 1.12
relative viability ([1]; first compound 0.253 µM): 0.954
relative viability ([1]; first compound 0.8 µM): 0.918
relative viability ([1]; first compound 2.53 µM): 0.88
relative viability ([1]; first compound 8 µM): 0.824
relative viability (AT-7519; 0.01 µM): 0.951
relative viability (AT-7519; 0.03162 µM): 0.934
relative viability (AT-7519; 0.3162 µM): 0.765
relative viability (AT-7519; 1 µM): 0.499
relative viability ([2]; 0.08 µM): 1.11
relative viability ([2]; 0.253 µM): 0.942
relative viability ([2]; 0.8 µM): 0.925
relative viability ([2]; 2.53 µM): 1.02
relative viability ([2]; 8 µM): 0.92

Source: the supplement of paper PMC10307832
